Measured values as given in paper PMC8698454, “Anti-Colonization Effect of Au Surfaces with Self-Assembled Molecular Monolayers Functionalized with Antimicrobial Peptides on S. epidermidis” (Antibiotics, 2021).
Like-named read-outs stand apart in the source and are kept apart here.

What was measured:
Format in all cases: cell-based
[1] = test system: Escherichia coli ATCC 25922; conditions: for Antimicrobial Activity (MIC) E. coli: ATCC 25922, broth microdilution CLSI M07-A9 (1a,1b,2a,2b) or broth dilution EUCAST (1c,1d,2c,2d), 0.5-256 µg/mL tested, biological triplicate, no visual growth; for MIC E. coli ATCC 25922: Table S3
Experimental: (§1) The minimal inhibitory concentration (MIC) of peptides 1a, 1b, 2a, and 2b were determined by broth microdilution according to the Clinical Laboratory Standard Institute (CLSI) method […]-A9. The MICs of the peptides 1c, 1d, 2c, and 2d were determined by broth dilution according to the European Committee for Antimicrobial Susceptibility Testing (EUCAST). Final concentrations of 0.5-256 μg/mL were tested against a panel of reference bacteria-S. aureus (ATCC 9144), S. epidermidis (1457), E. coli (ATCC 25922), and P. aeruginosa (ATCC 27853). Each strain was tested in biological triplicate. The MIC values were defined as the lowest concentration of the peptides resulting in no visual growth.

[2] = test system: Pseudomonas aeruginosa ATCC 27853; conditions: for Antimicrobial Activity (MIC) P. aeruginosa: ATCC 27853, broth microdilution CLSI M07-A9 (1a,1b,2a,2b) or broth dilution EUCAST (1c,1d,2c,2d), 0.5-256 µg/mL tested, biological triplicate, no visual growth; for MIC P. aeruginosa ATCC 27853: Table S3
Experimental: as §1

[3] = test system: Staphylococcus aureus ATCC 9144; conditions: for Antimicrobial Activity (MIC) S. aureus: ATCC 9144, broth microdilution CLSI M07-A9 (1a,1b,2a,2b) or broth dilution EUCAST (1c,1d,2c,2d), 0.5-256 µg/mL tested, biological triplicate, lowest concentration with no visual growth; for MIC S. aureus ATCC 9144: Table S3
Experimental: as §1

[4] = test system: Staphylococcus epidermidis 1457; conditions: for MIC S. epidermidis 1457: Table S3; for Antimicrobial Activity (MIC) S. epidermidis: strain 1457, broth microdilution CLSI M07-A9 (1a,1b,2a,2b) or broth dilution EUCAST (1c,1d,2c,2d), 0.5-256 µg/mL tested, biological triplicate, no visual growth
Experimental: as §1

[5] = technical replicate 1, biological replicate BR1
[6] = technical replicate 1, biological replicate BR2
[7] = technical replicate 1, biological replicate BR3
[8] = technical replicate 2, biological replicate BR1
[9] = technical replicate 2, biological replicate BR2
[10] = technical replicate 2, biological replicate BR3
[11] = technical replicate 3, biological replicate BR1
[12] = technical replicate 3, biological replicate BR2
[13] = technical replicate 3, biological replicate BR3

Substance | Antimicrobial Activity (MIC) E. coli [1] [mg/L] | MIC E. coli ATCC 25922 [1, 5] [mg/L] | MIC E. coli ATCC 25922 [1, 6] [mg/L] | MIC E. coli ATCC 25922 [1, 7] [mg/L] | MIC E. coli ATCC 25922 [1, 8] [mg/L] | MIC E. coli ATCC 25922 [1, 9] [mg/L] | MIC E. coli ATCC 25922 [1, 10] [mg/L] | MIC E. coli ATCC 25922 [1, 11] [mg/L] | MIC E. coli ATCC 25922 [1, 12] [mg/L] | MIC E. coli ATCC 25922 [1, 13] [mg/L] | Antimicrobial Activity (MIC) P. aeruginosa [2] [mg/L] | MIC P. aeruginosa ATCC 27853 [2, 5] [mg/L] | MIC P. aeruginosa ATCC 27853 [2, 6] [mg/L] | MIC P. aeruginosa ATCC 27853 [2, 7] [mg/L] | MIC P. aeruginosa ATCC 27853 [2, 8] [mg/L] | MIC P. aeruginosa ATCC 27853 [2, 9] [mg/L] | MIC P. aeruginosa ATCC 27853 [2, 10] [mg/L] | MIC P. aeruginosa ATCC 27853 [2, 11] [mg/L] | MIC P. aeruginosa ATCC 27853 [2, 12] [mg/L] | MIC P. aeruginosa ATCC 27853 [2, 13] [mg/L] | other results
N3-PEG200-RWWRF [1a, azidopeptide N3-PEG200-RWWRF, PEG200-linked, amidated C-terminus] | 256 | 128 | 256 | 256 | 128 | 256 | 256 | 128 | 256 | 256 | 256 | 256 | 256 | 256 | 256 | 256 | 256 | 256 | 256 | 256 | Antimicrobial Activity (MIC) S. aureus [3]: 64 mg/L; MIC S. aureus ATCC 9144 [3, 5]: 64 mg/L; MIC S. aureus ATCC 9144 [3, 6]: 64 mg/L; MIC S. aureus ATCC 9144 [3, 7]: 64 mg/L; MIC S. aureus ATCC 9144 [3, 8]: 64 mg/L; MIC S. aureus ATCC 9144 [3, 9]: 64 mg/L; MIC S. aureus ATCC 9144 [3, 10]: 64 mg/L; MIC S. aureus ATCC 9144 [3, 11]: 64 mg/L; MIC S. aureus ATCC 9144 [3, 12]: 64 mg/L; MIC S. aureus ATCC 9144 [3, 13]: 64 mg/L; MIC S. epidermidis 1457 [4, 5]: 32 mg/L; MIC S. epidermidis 1457 [4, 6]: 32 mg/L; MIC S. epidermidis 1457 [4, 7]: 32 mg/L; MIC S. epidermidis 1457 [4, 8]: 32 mg/L; MIC S. epidermidis 1457 [4, 9]: 32 mg/L; MIC S. epidermidis 1457 [4, 10]: 32 mg/L; MIC S. epidermidis 1457 [4, 11]: 32 mg/L; MIC S. epidermidis 1457 [4, 12]: 32 mg/L; MIC S. epidermidis 1457 [4, 13]: 32 mg/L; Antimicrobial Activity (MIC) S. epidermidis [4]: 32 mg/L
N3-PEG400-RBBRF [2b, azidopeptide N3-PEG400-RBBRF, B = biphenylalanine, amidated C-terminus] | 128 | 128 | 128 | 128 | 128 | 128 | 128 | 128 | 128 | 128 | 256 | 128 | 256 | 256 | 128 | 256 | 256 | 128 | 256 | 256 | Antimicrobial Activity (MIC) S. aureus [3]: 32 mg/L; MIC S. aureus ATCC 9144 [3, 5]: 16 mg/L; MIC S. aureus ATCC 9144 [3, 6]: 32 mg/L; MIC S. aureus ATCC 9144 [3, 7]: 16 mg/L; MIC S. aureus ATCC 9144 [3, 8]: 16 mg/L; MIC S. aureus ATCC 9144 [3, 9]: 32 mg/L; MIC S. aureus ATCC 9144 [3, 10]: 32 mg/L; MIC S. aureus ATCC 9144 [3, 11]: 16 mg/L; MIC S. aureus ATCC 9144 [3, 12]: 32 mg/L; MIC S. aureus ATCC 9144 [3, 13]: 32 mg/L; MIC S. epidermidis 1457 [4, 5]: 16 mg/L; MIC S. epidermidis 1457 [4, 6]: 16 mg/L; MIC S. epidermidis 1457 [4, 7]: 16 mg/L; MIC S. epidermidis 1457 [4, 8]: 16 mg/L; MIC S. epidermidis 1457 [4, 9]: 16 mg/L; MIC S. epidermidis 1457 [4, 10]: 16 mg/L; MIC S. epidermidis 1457 [4, 11]: 16 mg/L; MIC S. epidermidis 1457 [4, 12]: 16 mg/L; MIC S. epidermidis 1457 [4, 13]: 16 mg/L; Antimicrobial Activity (MIC) S. epidermidis [4]: 16 mg/L
